The values below come from patent US20090004137A1, “Uridine Derivatives as Antiviral Drugs Against a Flaviviridae, Especially Hcv” (priority 2004, published 2009).

For data set [1], the system named is subgenomic HCV replicon BM4-5 in Huh7 cells. As to the kind of experiment: Antiviral assay on HCV subgenomic replicon, Northern blot of (+)-strand HCV RNA. The class given is cell-based, Hepatitis C Virus. Particulars: for IC50: read-out: IC50, anti-HCV activity, (+)-RNA; for IC90: read-out: IC90, anti-HCV activity, (+)-RNA; for Selectivity Index (SI), ratio between CC50 and IC50: replicon system. Here is the method:
(§1) Antiviral and Cytotoxicity assays for HCV. Huh7 cells harbouring the subgenomic HCV replicon BM4-5 (J. T. Guo et al., J. Virol. 2001, 75: 8516-8523) were used in this study. Cells were maintained in Dulbecco's modified Eagle's medium high glucose 4.5 g/l (LifeTechnlogies) supplemented with 10% fetal bovine serum, 1% L-glutamine, 1% penicillin and streptomycin, 1% L-Pyruvate and 500 μg/ml of geneticien (G418, Invitrogen). Geneticin was used to select cells permitting the HCV RNA replication. Cells were passaged every four days with a 1:4 ratio.
Cells were seeded in 6-wells plates at a density of 2.5×10^5 cells per well, sixteen hours before the beginning of treatment. […] The administration of each drug was renewed every day for three consecutive days. Ribarivin (ICN Pharmaceuticals), mycophenolic acid (MPA, Sigma), and interferon alpha-2b (IntronA®)) were used in the same conditions as positive controls. The concentrations used for these drugs were respectively: 0; 0.5; 1; 2; 4; 8; 16; 32; 64; 128; 256 and 512 μM for ribavirin, 0; 2.5; 5; 10; 20; 40 μM for mycophenolic acid, and 0; 0.1; 1; 10; 100 and 1000 Ul/mL for IFN alpha-2b. Total RNA was extracted at the end of treatment (24 hours after the last day of treatment) with the <<Extract all>> reagent (Eurobio), which is a mix of phenol and guanidium thiocyanate. Northern blot analysis was then performed using the NorthernMax™-Gly kit (Ambion), following manufacturer's instructions. Five micrograms of total RNA were denaturated in glyoxal buffer at 50° C. for 30 minutes, separated by 1.1% agarose gel electrophoresis, and then transferred for 12 hours onto a charged nylon membrane (HybondN+, Amersham). Hybridization was carried out with three different [^32P]CTP-labelled riboprobes obtained by in vitro transcription (Riboprobe in vitro transcription system, Promega). Two probes were complementary to the NS5A region of the HCV genome of negative polarity and positive polarity. A third probe was complementary to the beta-actin mRNA and obtained by in vitro transcription from a specific plasmid (PTRI beta actin human, reference 7424, Ambion). First, the blot was hybridized with the riboprobes directed against the negative strand of HCV RNA and beta-actin mRNA, respectively. After one night of hybridization at 68° C., the membrane was washed, then exposed to X-ray film and a phosphor screen (phosphorimager). This screen was then scanned and quantitative analysis was achieved using ImageQuant software. The amount of beta-actin mRNA was used as an internal loading control to standardize the amount of HCV RNA detected. The same membrane was subsequently hybridized with the […] to determine the level of positive strand HCV RNA, suing the same approach.
On the technique in general: Replicon systems follow genome replication, usually without infectious particles.

Data set [2] is described as follows: Cell viability (neutral red) on the replicon system. The class given is cell-based. The following applies: human, Huh7 cells harbouring the subgenomic HCV replicon BM4-5, neutral red test, drug renewed daily for three days, read-out: CC50, cytotoxicity on Replicon System. The procedure: as §1
(§2) For cell viability assays, cells were seeded in 96-well plates at a density of 12,500 cells per well. They were treated by the different molecules with the same concentrations and conditions than those used for the antiviral assays. Then, cell viability was measured by neutral red assay. Neutral red specifically colors lysosomes and its accumulation depends on cellular membrane integrity. The yield of neutral red incorporated in cells is proportional to the number of living cells. At the end of treatment, culture medium was removed; cells were washed by PBS, then coloured with neutral red at 0.005% for 3 hours at 37° C. Cells were then fixed 1 minute by formol calcium and lysed by atreatment with a vol/vol mixture of acetic acid and ethanol. After 15 minutes incubation, absorbance was read at 490 nm.

Data set [3] can be described thus: Cytotoxicity against PBM cells. Particulars: human. The class given is cell-based.
The nature of data set [4]: Cytotoxicity against CEM cells. It is filed as cell-based. Particulars: human.
Data set [5] in a line: Cytotoxicity against VERO cells. The following applies: African green monkey. The class given is cell-based.
Data set [6] has as its system BVDV strain NADL. Nature of the data set: Antiviral assay on BVDV, inhibition of cytopathic effect in MDBK cells. Particulars: Bovine viral diarrhea virus isolates and strains, read-out: EC50 ECP inhibition (3rd day p.i.). The class given is cell-based. Here is the method:
Antiviral and cytotoxicity assays for BVDV. Noncytopathic-BVDV-free MDBK cells (European Collection of Animal Cell Cultures, Porton Down, U.K.) were kindly provided by Dr N. Zitzmann (Oxford University). Cells were propagated in DMEM F12 (Eurobio) supplemented with 10% horse serum (Life Technologies), 1% L-glutamin (Gibco), 1% penicillin ansd streptomycin (Gibco).
MDBK cells were seeded in microwell plates (96 wells) at a density of 1.10^5 cells per well, then infected with BVDV (strain NADL) (at dilution inducing 100%/o cytopathic effect three days post inoculation, i.e approximately 10 plaque forming units (pfu) per well at three days post infection) for one hour, at 37° C. After a wash with DMEM, infected cells were incubated for three days in the presence of absence of drug; each concentration of drug was added in 12 consecutive wells. The appearance of CPE was visually checked the third day post inoculation to evaluate the IC50 on BVDV (strain NADL), according to the different conditions of treatment.
Background: Cytopathic effects are the visible damage that an infection or toxin causes in cultured cells.

Data set [7] in a line: Cytotoxicity on uninfected MDBK cells (neutral red). Particulars: cattle (bovine). It is filed as cell-based. The procedure: as §2
Antiviral and cytotoxicity assays for BVDV. Noncytopathic-BVDV-free MDBK cells (European Collection of Animal Cell Cultures, Porton Down, U.K.) were kindly provided by Dr N. Zitzmann (Oxford University). Cells were propagated in DMEM F12 (Eurobio) supplemented with 10% horse serum (Life Technologies), 1% L-glutamin (Gibco), 1% penicillin ansd streptomycin (Gibco). The NADL cytopathic (CP) BVDV strain was obtained from ATCC: VR-504.
Uninfected MDBK cells were grown in the absence or presence of varying concentrations of drug tested. After 3 days, toxicity was evaluated by neutral red coloration as described above.

Data set [8] has as its system Huh7 cells harbouring the subgenomic HCV replicon BM4-5. As to the kind of experiment: Cell viability (neutral red) on the replicon system. The class given is cell-based. Particulars: neutral red test, drug renewed daily for three days, read-out: CC50, cytotoxicity on Replicon System. Here is the method: as §1, §2
For data set [9], the system named is PBM cells. As to the kind of experiment: Cytotoxicity against PBM cells. The class given is cell-based.
Data set [10] concerns CEM cells. Nature of the data set: Cytotoxicity against CEM cells. The class given is cell-based.
In data set [11] the test system is VERO cells. Nature of the data set: Cytotoxicity against VERO cells. The class given is cell-based.
The mark [12] stands for this setting: Hepatitis C virus, 72 h, Huh7 BM4-5 replicon, positive strand HCV RNA by Northern blot, three days treatment.
[13] abbreviates: Huh7 BM4-5 replicon, positive strand HCV RNA by Northern blot, three days treatment.

One may read the IC50 as the concentration that inhibits the measured activity by half. As usually defined, the IC90 is the concentration needed for an effect of 90%. Broadly, the CC50 is the concentration giving 50% cytotoxicity. The melting point is the temperature of the solid-liquid transition. In general, EC50 refers to the concentration giving half of the maximal effect.

Read-outs that look alike come from different tables or passages of the source. A value given as a limit tells only on which side of the number the result lay.

`O=c1[nH]c(=O)n([C@@H]2O[C@H](CO)[C@@H](O)[C@H]2O)cc1/C(I)=C\I` [Compound 14b, (E)-5-(1,2-Diiodovinyl)-uridine] showed a melting point of 107 to 109 °C. Also, in data set [1] (setting [12]), the IC50 worked out at 162 µM and the 90% effect concentration (IC90) was over 250 µM. In addition, in data set [1], the “Selectivity Index (SI), ratio between CC50 and IC50” value was over 1.5. In [2], the 50% cytotoxic concentration (CC50) at 3 days is over 250 µM. Also, the CC50 in data set [3] is over 100 µM. In data set [4], the midpoint of cytotoxicity, the CC50, lay at 41.7 µM. This compound came in with a CC50 in data set [5] of 49.5 µM.

In the case of `O=c1[nH]c(=O)n([C@H]2C[C@H](O)[C@@H](CO)O2)cc1/C(I)=C\I` [Compound 14a, (E)-5-(1,2-Diiodovinyl)-2′-deoxyuridine], the melting point lay in the range of 103 to 105 °C. Also, in [1] (setting [12]), the concentration for half-maximal inhibition (IC50) is over 161 µM and the concentration for an effect of 90% (IC90) was over 263 µM. Moreover, the “Selectivity Index (SI), ratio between CC50 and IC50” value in [1] is on record as under 1. Moreover, the cytotoxic concentration (CC50) at 3 days in data set [2] came out at 76.7 µM. In [3], this compound had a CC50 of 14.7 µM. In data set [4], this compound registered a CC50 of 19.5 µM. Besides, the midpoint of cytotoxicity in data set [5], the CC50, lay at 19.5 µM.

In the case of `O=c1[nH]c(=O)n([C@@H]2O[C@H](CO)C[C@H]2O)cc1/C(Br)=C\I` [Compound 15c, (E)-5-(1-Bromo-2-iodovinyl)-3′-deoxyuridine], the half-maximal inhibitory concentration (IC50) in data set [1] (setting [12]) is over 200 µM. Moreover, the concentration for an effect of 90% (IC90) in data set [1] (setting [12]) was over 200 µM. Further, the “Selectivity Index (SI), ratio between CC50 and IC50” value in [1] is recorded as “≦1”. Further, the figures for the cytotoxic concentration (CC50) at 3 days in data set [2] and in data set [7] were over 200 µM and over 100 µM, respectively. For the same compound, the results for the 50% cytotoxic concentration (CC50) in data set [3], in data set [4] and in data set [5] were 71.5 µM, 79.3 µM and over 100 µM, respectively. In data set [6], the EC50 is over 100 µM.

`O=c1[nH]c(=O)n([C@H]2C[C@H](O)[C@@H](CO)O2)cc1C#CI` [Compound 12a, 5-(2-Iodoethynyl)-2′-deoxyuridine] returned a melting point of 135 to 137 °C. Moreover, in data set [1] (setting [12]), the half-inhibitory concentration (IC50) worked out at 57.1 µM and the IC90 was over 239 µM. Further, the “Selectivity Index (SI), ratio between CC50 and IC50” value in [1] is over 3.2. Further, in data set [2], the CC50 at 3 days is over 182 µM. It took 7.5 µM to reach half-maximal cytotoxicity in data set [3] (CC50). Moreover, the 50% cytotoxic concentration (CC50) in [4] was 15.8 µM. Also, the CC50 in [5] is over 100 µM.

Take `O=c1[nH]c(=O)n([C@@H]2O[C@H](CO)[C@@H](O)[C@H]2O)cc1C#CBr` [Compound 13b, 5-(2-bromoethynyl)-uridine]: the IC50 in [1] (setting [12]) is 58 µM. Further, the IC90 in [1] (setting [12]) is over 200 µM. The “Selectivity Index (SI), ratio between CC50 and IC50” value in data set [1] was found to be 3.2. Moreover, the CC50 at 3 days in data set [2] was 188 µM; in data set [7], over 100 µM. The CC50 in data set [3], in data set [4] and in data set [5] was over 100 µM each time. Besides, the EC50 in data set [6] was over 100 µM.

As to `NC(=O)c1ncn([C@@H]2O[C@H](CO)[C@@H](O)[C@H]2O)n1` [Ribavirin, 1-β-D-ribofuranosyl-1,2,4-triazole-3-carboxamide, reference compound], in data set [1] (Hepatitis C virus, 72 h), the IC50 amounted to 170 µM. The IC90 in [1] (setting [12]) is over 512 µM. For the same compound, the “Selectivity Index (SI), ratio between CC50 and IC50” value in data set [1] is under 1. Also, the 50% cytotoxic concentration (CC50) at 3 days in [2] is 110 µM; in data set [7], over 100 µM. Further, the 50% effective concentration (EC50) in data set [6] is 36 µM.

For `O=c1[nH]c(=O)n([C@@H]2O[C@H](CO)[C@@H](O)[C@H]2O)cc1/C(Cl)=C\I` [Compound 16b, (E)-5-(l-Chloro-2-iodovinyl)-uridine], in data set [1] (setting [13]), the IC50 turned out to be 74.9 µM. The IC90 in [1] (setting [13]) was over 250 µM. In addition, the CC50 in data set [8] was over 200 µM; in data set [9], over 100 µM; in data set [10] it was over 100 µM; in data set [11] it was over 100 µM.
